Measurements: patent US9556205B2, “Fungicide N-[(trisubstitutedsilyl)methyl]-carboxamide derivatives” (BAYER INTELLECTUAL PROPERTY GMBH, priority 2010, dated 2017)
Values joined by “and” are separate entries in the source; they are usually repeats but may differ in a detail not shown here. Identical values can stand only once.

Tests used:
[1] = tested on: Pyrenophora teres; test: In vivo preventive test on Pyrenophora teres (barley), Example F; conditions: 500 ppm of active ingredient, evaluated 7-9 days after inoculation
Experimental: (§1) Solvent: 49 parts by weight of N,N-dimethylformamide Emulsifier: 1 part by weight of alkylaryl polyglycol ether To produce a suitable preparation of active compound, 1 part by weight of active compound is mixed with the stated amounts of solvent and emulsifier, and the concentrate is diluted with water to the desired concentration. To test for preventive activity, young plants are sprayed with the preparation of active compound at the stated rate of application. One day after this treatment, the plants are inoculated with an aqueous spore suspension of Pyrenophora teres. […] Then the plants are placed in a greenhouse at a temperature of approximately 20° C. and a relative atmospheric humidity of approximately 80%.

[2] = log P by HPLC on reversed-phase column (C18), EEC Directive 79/831 Annex V.A8; type: physicochemical; conditions: 40° C., 0.1% aqueous formic acid and acetonitrile, linear gradient 10% to 90% acetonitrile
Experimental: In table 1, the log P values were determined in accordance with EEC Directive 79/831 Annex V.A8 by HPLC (High Performance Liquid Chromatography) on a reversed-phase column (C18), using the method described below:
Temperature: 40° C.; Mobile phases: 0.1% aqueous formic acid and acetonitrile; linear gradient from 10% acetonitrile to 90% acetonitrile.
Calibration was carried out using unbranched alkan-2-ones (comprising 3 to 16 carbon atoms) with known log P values (determination of the log P values by the retention times using linear interpolation between two successive alkanones). lambda-max-values were determined using UV-spectra from 200 nm to 400 nm and the peak values of the chromatographic signals.

[3] = tested on: Alternaria solani; test: In vivo preventive test on Alternaria solani (tomato); conditions: 500 ppm of active ingredient, evaluated 7 days after inoculation
Experimental: as §1, with “Alkylarylpolyglycolether” for “alkylaryl polyglycol ether”, “Alternaria solani.” for “Pyrenophora teres.”, “an incubation cabinet” for “a greenhouse”, “at” for “at a temperature of”, “96%.” for “approximately 80%.”

[4] = tested on: Leptosphaeria nodorum; test: In vivo preventive test on Leptosphaeria nodorum (wheat); conditions: 500 ppm of active ingredient, evaluated 8 days after inoculation
Experimental: Solvent: 49 parts by weight of N,N-dimethylacetamide Emulsifier: 1 part by weight of alkylaryl polyglycol ether To produce a suitable preparation of active compound, 1 part by weight of active compound or the compound combination is mixed with the stated amounts of solvent and emulsifier, and the concentrate is diluted with water to the desired concentration. To test for protective activity, young plants are sprayed with a preparation of active compound or active compound combination at the stated rate of application. After the spray coating has dried on, the plants are sprayed with a spore suspension of Leptosphaeria nodorum. […] The plants are placed in a greenhouse at a temperature of approximately 15° C. and a relative atmospheric humidity of approximately 80%.

[5] = tested on: Septoria tritici; test: In vivo preventive test on Septoria tritici (wheat); conditions: 500 ppm of active ingredient, evaluated 21 days after inoculation
Experimental: Solvent: 49 parts by weight of N,N-dimethylacetamide Emulsifier: 1 part by weight of alkylaryl polyglycol ether To produce a suitable preparation of active compound, 1 part by weight of active compound or active compound combination is mixed with the stated amounts of solvent and emulsifier, and the concentrate is diluted with water to the desired concentration. To test for preventive activity, young plants are sprayed with the preparation of active compound or active compound combination at the stated rate of application. After the spray coating has dried on, the plants are sprayed with a spore suspension of Septoria tritici. […] The plants are placed in a greenhouse at a temperature of approximately 15° C. and a relative atmospheric humidity of approximately 80%.

[6] = tested on: Venturia inaequalis; test: In vivo preventive test on Venturia inaequalis (apple scab); conditions: 100 ppm of active ingredient, evaluated 10 days after inoculation
Experimental: Solvent: 24.5 parts by weight of acetone • 24.5 parts by weight of N,N-dimethylacetamide Emulsifier: 1 part by weight of alkylaryl polyglycol ether To produce a suitable preparation of active compound, 1 part by weight of active compound is mixed with the stated amounts of solvent and emulsifier, and the concentrate is diluted with water to the desired concentration. To test for protective activity, young plants are sprayed with the preparation of active compound at the stated rate of application. […] The plants are then placed in a greenhouse at approximately 21° C. and a relative atmospheric humidity of approximately 90%.

[7] = tested on: Botrytis cinerea; test: In vivo preventive test on Botrytis cinerea (beans); conditions: 500 ppm of active ingredient, lesion size 2 days after inoculation
Experimental: Solvent: 24.5 parts by weight of acetone
• 24.5 parts by weight of N,N-dimethylacetamide Emulsifier: 1 part by weight of alkylaryl polyglycol ether
To produce a suitable preparation of active compound, 1 part by weight of active compound is mixed with the stated amounts of solvent and emulsifier, and the concentrate is diluted with water to the desired concentration.
To test for protective activity, young plants are sprayed with the preparation of active compound. After the spray coating has dried on, 2 small pieces of agar covered with growth of Botrytis cinerea are placed on each leaf. The inoculated plants are placed in a darkened chamber at 20° C. and a relative atmospheric humidity of 100%.
2 days after the inoculation, the size of the lesions on the leaves is evaluated. 0% means an efficacy which corresponds to that of the control, while an efficacy of 100% means that no disease is observed. Under these conditions, excellent (at least 95%) to total protection is observed at a dose of 500 ppm of active ingredient with the following compounds from table C: […]

[8] = tested on: Aspergillus parasiticus; type: cell-based; conditions: 7 days at 20° C., OD620nm
[9] = tested on: Aflatoxins production by Aspergillus parasiticus; type: cell-based

With `Cc1nn(C)c(F)c1C(=O)N(C[Si](C)(C)c1cc(Cl)cc(Cl)c1)C1CC1` [Example 48] the Efficacy [1] was 100%, the logP [2] was 4.34 and the Efficacy [3] was 100%. The Efficacy [4] was 100%.
For `Cc1nn(C)c(F)c1C(=O)N(C[Si](C)(C)c1ccccc1Cl)C1CC1` [Example 19], the Efficacy [1] was 100%, the logP [2] was 3.60 and the Efficacy [5] was 100%. It also gave an Efficacy [6] of 99%, an Efficacy [3] of 100% and an Efficacy [7] of 100%. The Efficacy [4] was 100%.
With `CCc1nn(C)c(F)c1C(=O)N(C[Si](C)(C)c1cc(Cl)cc(Cl)c1)C1CC1` [Example 49] the Efficacy [1] was 100%, the logP [2] was 4.78 and the Efficacy [5] was 100%. For the same compound, the Efficacy [6] was 96%, the Efficacy [3] was 94% and the Efficacy [4] was 94%.
With `Cc1nc(C(F)F)c(C(=O)N(C[Si](C)(C)c2ccccc2Cl)C2CC2)s1` [Example 21] the Efficacy [1] was 100%, the logP [2] was 4.32 and the Efficacy [5] was 100%. The Efficacy [3] was 95% and the Efficacy [4] was 100%.
Work on `Cc1nn(C)c(F)c1C(=O)N(C[Si](C)(C)c1ccc(Cl)cc1Cl)C1CC1` [Example 39] yielded an Efficacy [1] of 100%, a logP [2] of 4.30 and an Efficacy [5] of 100%. It also gave an Efficacy [6] of 100%, an Efficacy [3] of 94% and an Efficacy [4] of 94%.
`CCc1nn(C)c(F)c1C(=S)N(C[Si](C)(C)c1ccccc1)C1CC1` [Example 9] gave an Efficacy [1] of 100%, a logP [2] of 4.41 and an Efficacy [5] of 93%. For the same compound, the Efficacy [3] was 100% and the Efficacy [4] was 100%.
With `Cn1nc(C(F)F)c(C(=O)NC[Si](C)(C)c2ccccc2Cl)c1F` [Example 15] the Efficacy [1] was 100%, the logP [2] was 3.48 and the Efficacy [5] was 90%. For the same compound, the “% Inhibition of fungal growth at 50 μM” value [8] was 76%, the “% Inhibition of Aflatoxin at 50 μM” value [9] was 88% and the Efficacy [3] was 95%.
For `Cn1nc(C(F)F)c(C(=O)N(C[Si](C)(C)Cc2cccc(Cl)c2)C2CC2)c1Cl` [Example 65], the Efficacy [1] was 100%, the logP [2] was 4.59 and the “% Inhibition of fungal growth at 50 μM” value [8] was 72%. For the same compound, the “% Inhibition of Aflatoxin at 50 μM” value [9] was 82% and the Efficacy [3] was 95%.
In the case of `Cc1cc(C(=O)N(C[Si](C)(C)c2ccc(Cl)cc2Cl)C2CC2)c(C)o1` [Example 40], the Efficacy [1] is reported as 95%, the logP [2] is reported as 5.46 and the Efficacy [5] is reported as 100%.
In the case of `Cn1nc(C(F)F)c(C(=O)N(C[Si](C)(C)c2ccc3ccccc3c2)C2CC2)c1F` [Example 74], the Efficacy [1] is reported as 100%, the logP [2] is reported as 4.36 and the “% Inhibition of fungal growth at 50 μM” value [8] is reported as 100%. For the same compound, the “% Inhibition of Aflatoxin at 50 μM” value [9] was 100% and the Efficacy [3] was 100%.
For `Cn1nc(C(F)F)c(C(=O)N(C[Si](C)(C)Cc2ccccc2Cl)C2CC2)c1F` [Example 61], the Efficacy [1] was 100%, the logP [2] was 4.41 and the “% Inhibition of fungal growth at 50 μM” value [8] was 100%. For the same compound, the “% Inhibition of Aflatoxin at 50 μM” value [9] was 100% and the Efficacy [3] was 100%.
In the case of `CCc1nn(C)c(F)c1C(=O)N(C[Si](C)(C)c1ccccc1Cl)C1CC1` [Example 20], the Efficacy [1] is reported as 100%, the logP [2] is reported as 4.03 and the Efficacy [5] is reported as 92%. It also gave an Efficacy [6] of 90%, an Efficacy [3] of 100% and an Efficacy [4] of 100%.
`CN(C[Si](C)(C)c1ccccc1)C(=O)c1c(C(F)F)nn(C)c1F` [Example 4] gave an Efficacy [1] of 100%, a logP [2] of 3.23 and an Efficacy [5] of 100%. For the same compound, the “% Inhibition of fungal growth at 50 μM” value [8] was 100%, the “% Inhibition of Aflatoxin at 50 μM” value [9] was 100% and the Efficacy [3] was 100%. It also gave an Efficacy [4] of 93%.
For `Cn1cc(C(=O)N(C[Si](C)(C)c2ccccc2Cl)C2CC2)c(C(F)F)n1` [Example 17], the Efficacy [1] was 95%, the logP [2] was 3.73 and the Efficacy [5] was 83%. For the same compound, the Efficacy [6] was 98%, the Efficacy [3] was 94% and the Efficacy [4] was 94%.
In the case of `Cn1nc(C(F)F)c(C(=O)NC[Si](C)(C)c2cc(Cl)cc(Cl)c2)c1Cl` [Example 46], the Efficacy [1] is reported as 100%, the logP [2] is reported as 4.27 and the “% Inhibition of fungal growth at 50 μM” value [8] is reported as 84%. The “% Inhibition of Aflatoxin at 50 μM” value [9] was 99% and the Efficacy [3] was 95%.
With `Cc1nc(C(F)F)c(C(=O)N(C[Si](C)(C)c2cccc(Cl)c2)C2CC2)s1` [Example 32] the Efficacy [1] was 95%, the logP [2] was 4.32 and the Efficacy [5] was 100%. The Efficacy [4] was 100%.
In the case of `Cn1cc(C(=O)N(C[Si](C)(C)c2cc(Cl)cc(Cl)c2)C2CC2)c(C(F)F)n1` [Example 51], the Efficacy [1] is reported as 100%, the logP [2] is reported as 4.41 and the Efficacy [5] is reported as 100%. For the same compound, the Efficacy [3] was 95% and the Efficacy [4] was 80% and 95%.
For `Cn1nc(C(F)F)c(C(=O)NC[Si](C)(C)c2ccccc2)c1Cl` [Example 2], the Efficacy [1] was 100%, the logP [2] was 3.31 and the “% Inhibition of fungal growth at 50 μM” value [8] was 71%. The “% Inhibition of Aflatoxin at 50 μM” value [9] was 87% and the Efficacy [3] was 95%.
In the case of `Cn1nc(C(F)F)c(C(=O)N(C[Si](C)(C)Cc2ccc(Cl)cc2Cl)C2CC2)c1F` [Example 70], the Efficacy [1] is reported as 100%, the logP [2] is reported as 5.03 and the “% Inhibition of fungal growth at 50 μM” value [8] is reported as 100%. The “% Inhibition of Aflatoxin at 50 μM” value [9] was 100% and the Efficacy [3] was 100%.
For `Cn1nc(C(F)F)c(C(=O)N(C[Si](C)(C)c2ccsc2)C2CC2)c1Cl` [Example 75], the Efficacy [1] was 100%, the logP [2] was 3.71 and the “% Inhibition of fungal growth at 50 μM” value [8] was 100%. For the same compound, the “% Inhibition of Aflatoxin at 50 μM” value [9] was 100% and the Efficacy [3] was 94%.
In the case of `CCc1nn(C)c(F)c1C(=O)N(C[Si](C)(C)c1cccc(Cl)c1)C1CC1` [Example 28], the Efficacy [1] is reported as 100%, the logP [2] is reported as 4.08 and the Efficacy [5] is reported as 100%. The Efficacy [6] was 88%, the Efficacy [3] was 100% and the Efficacy [4] was 100%.
Compound `Cc1nn(C)c(F)c1C(=S)N(C[Si](C)(C)c1ccccc1)C1CC1` [Example 10] has an Efficacy [1] of 100%, a logP [2] of 3.99 and an Efficacy [5] of 100%. The Efficacy [3] was 100% and the Efficacy [4] was 100%.
`Cn1cc(C(=O)N(C[Si](C)(C)c2cccc(Cl)c2)C2CC2)c(C(F)F)n1` [Example 30] showed an Efficacy [1] of 100%, a logP [2] of 3.80 and an Efficacy [5] of 100%. It also gave an Efficacy [3] of 95% and an Efficacy [4] of 100%.
In the case of `Cn1nc(C(F)F)c(C(=O)NC[Si](C)(C)c2ccc(Cl)cc2Cl)c1F` [Example 36], the Efficacy [1] is reported as 100%, the logP [2] is reported as 4.06 and the “% Inhibition of fungal growth at 50 μM” value [8] is reported as 84%. For the same compound, the “% Inhibition of Aflatoxin at 50 μM” value [9] was 100% and the Efficacy [3] was 100%.
